According to US20200306295A1, “METHOD AND DEVICE FOR ANNIHILATION OF Staphylococcus aureus” (priority 2017, published 2020):

Columns and labels:
MRSA USA300 [1] = system: MRSA USA300
Procedure: Thereafter, an aliquot (20 μL) of the bacterial suspension was transferred onto a glass slide. Samples were exposed to blue light at different time-lengths and variable light intensities. […] The solutions were cultured for 20 min. The solution was serially diluted in sterile PBS and transferred to LB plates in order to enumerate the viable number of MRSA colony-forming units (CFUs). […] Data are presented as viable MRSA CFU/mL and percent survival of MRSA CFU/mL in the treated groups.
Additive was defined as an FIC index of 1. Antagonism was defined as an FIC index of >4.

MRSA USA300 [2] = assay: In vivo MRSA mice wound model (blue light, H2O2, fusidic acid); design: species or system Balb/c mice
Description: To initiate the formation of a skin wound, five groups (n=5) of eight-week old female Balb/c mice (obtained from Harlan Laboratories, Indianapolis, Ind., USA) were disinfected with ethanol (70%) and shaved on the middle of the back (approximately a one-inch by one-inch square region around the injection site) one day prior to infection as described from a reported procedure (3). To prepare the bacterial inoculum, an aliquot of overnight culture of MRSA USA300 was transferred to fresh Tryptic soy broth and shaken at 37° C. until an OD600 value of ˜1.0 was achieved. The cells were centrifuged, washed once with PBS, re-centrifuged, and then re-suspended in PBS. Mice subsequently received an intradermal injection (40 μL) containing 2.40×10^9 CFU/mL MRSA USA300. An open wound formed at the site of injection for each mouse, ˜60 hrs post-infection.
One group of mice was left untreated (negative control). Each group of mice receiving a particular treatment regimen was housed separately in a ventilated cage with appropriate bedding, food, and water. Mice were checked twice daily during infection and treatment to ensure no adverse reactions were observed. Mice were treated twice daily (once every 12 hours) for three days, before they were humanely euthanized via CO2 asphyxiation 12 hours after the last dose was administered. The region around the skin wound was lightly swabbed with ethanol (70%) and excised. The tissue was subsequently homogenized in PBS. The homogenized tissue was then serially diluted in PBS before plating onto mannitol salt agar plates. Plates were incubated for at least 19 hours at 37° C. before viable MRSA CFU/mL were counted for each group. Outlier was removed based upon the Dixon Q Test.

stationary-phase MRSA = assay: Time-killing assay in PBS with or without pulsed laser (CFU enumeration); assay type: cell-based, S. aureus
Procedure: To quantify viable bacterial cells, CFU experiments were performed. 100 μl of sample analyte was transferred into a 96-well plate and then three or four ten-fold serial dilution achieved by transferring 20 μl bacterial culture into 180 μl 1×PBS in the next dilution row. After serial dilution, an aliquot (4 μl) from each well was spotted onto sterile TSA plates. After incubating the plates overnight (˜18 hours) at 37° C., the colonies were enumerated, and cell number was calculated in CFU/ml. For each CFU enumeration experiment, three independent replicates were applied.
Stationary-phase MRSA was prepared, washed and resuspended in 1×PBS at two-times of its original concentration. […] After laser treatment, the droplets were resuspended into 200 μl of 1×PBS (1:40 dilution) supplemented with antibiotics at different concentrations in a mini centrifuge tube (89166-278, VWR international). For example, daptomycin was added into MRSA solution after laser treatment at desired concentration of 0×MIC, 5×MIC, 10×MIC, 30×MIC, or 100×MIC supplemented with 50 μg/ml CaCl2). Corresponding groups without laser treatment were also conducted for comparison. These tubes were incubated within an orbital incubator (37° C., 200 rpm) for different incubation time. At each specific time point, 40 μl of aliquot from each group was transferred to a 96-well plate for follow-up CFU enumerating assay. In the case of tobramycin, additional antibiotic washing by 1×PBS was performed before the CFU experiment to avoid antibiotic interference. For time-killing assay in fresh human whole blood, similar protocol was followed as above, except that 1×PBS was replaced by fresh human whole blood and the initial stationary-phase MRSA solution was diluted by ten times with a concentration of ˜10^7 CFU/ml.

[3] = system: S. aureus (ATCC 6538) biofilm; conditions: blue light plus low-concentration H2O2
[4] = agent alone, topical, twice a day for three days

| Structure (SMILES) | MRSA killing (CFUs) (MRSA USA300 [1]; 13.2 mM H2O2 combined with blue light 108 J/cm^2, ~10^7 MRSA) | MRSA scavenged (MRSA USA300 [1]; 5-min culture with H2O2 after 2-min blue light exposure (24 J/cm^2)) [%] | antimicrobial efficiency relative to 2-min blue light alone (MRSA USA300 [1]; H2O2 20 min, 13.2 mM after 2-min blue light (24 J/cm^2)) | FIC index (MRSA USA300 [1]; blue light and H2O2 against MRSA, ≤0.5 is synergy, according to estimation) | pus formation in wound after sacrifice (MRSA USA300 [2]; [4]) | CFU reduction in wound tissue compared to the control group (MRSA USA300 [2]; blue light (24 J/cm^2) and 13.2 mM H2O2, twice daily for three days) | CFU reduction in wound tissue compared to fusidic acid-treated group (MRSA USA300 [2]; blue light and H2O2-treated group) | pus formation in wound after sacrifice (MRSA USA300 [2]; blue light plus H2O2) | killing of stationary-phase MRSA (stationary-phase MRSA; 220 μM with laser treatment, within 2 hours) [log] | killing of stationary-phase MRSA (stationary-phase MRSA; alone, at 22 mM high concentration) | MRSA killed inside biofilm [3] [%] |
| --- | --- | --- | --- | --- | --- | --- | --- | --- | --- | --- | --- |
| OO [H2O2, hydrogen peroxide] | eradicated all MRSA | 60 | Two times antimicrobial efficiency | ≤ 0.38 | didn't show this sign | around 1.5 log | around one more log reduction | didn't show this sign | 4 | minor killing | 92 |
| CC(=O)O[C@H]1C[C@@]2(C)[C@@H](C[C@@H](O)[C@H]3[C@@]4(C)CC[C@@H](O)[C@@H](C)[C@@H]4CC[C@@]32C)/C1=C(\CCC=C(C)C)C(=O)O [fusidic acid] | – | – | – | – | showed the formation of pus | – | – | – | – | – | – |
